From US20050085447A1, “Pyrido[3,4-d]pyrimidine derivatives as matrix metalloproteinase-13 inhibitors” (Warner-Lambert Company LLC, priority 2003, published 2005)
Read-outs that look alike come from different tables or passages of the source.

Assays:
Type in all cases: biochemical
MMP-3 catalytic domain = molecular target: T1, MMP-3 catalytic domain (Homo sapiens, UniProt P08254); test: Thiopeptolide substrate hydrolysis inhibition assay, MMP-3 catalytic domain; details: MES buffer pH 6.0, read-out: MMP-3CD IC50
T1 construct: MMP-1 full-length, MMP-3 catalytic domain, MMP-7 full-length
Text: (§1) The assay methods of Biological Examples 1-4 measure the amount by which a test compound reduces the hydrolysis of a thiopeptolide substrate catalyzed by a matrix metalloproteinase enzyme or catalytic domain thereof. It has been shown previously by Ye Qi-Zhuang, Hupe D., and Johnson L. (Current Medicinal Chemistry, 1996;3:407-418) that inhibitor activity against a catalytic domain of an MMP is predictive of the inhibitor activity against the respective full-length MMP enzyme. The methods described below for the inhibition of MMP-13 may also be adapted and used to determine the ability of the compounds of Formula I to inhibit other matrix metalloproteases such as MMP-1, MMP-2, MMP-3, MMP-7, MMP-8, MMP-9, MMP-12, MMP-14, MMP-17, and the like.
(§2) Thiopeptolide substrates show virtually no decomposition or hydrolysis at or below neutral pH in the absence of a matrix metalloproteinase enzyme. A typical thiopeptolide substrate commonly utilized for assays is Ac-Pro-Leu-Gly-thioester-Leu-Leu-Gly-OEt. A 100 μL assay mixture will contain 50 mM of N-2-hydroxyethylpiperazine-N′-2-ethanesulfonic acid buffer (“HEPES,” pH 7.0), 10 mM CaCl2, 100 μM thiopeptolide substrate, and 1 mM 5,5′-dithio-bis-(2-nitro-benzoic acid) (DTNB). […] The change in absorbance at 405 nm is monitored on a Thermo Max microplate reader (molecular Devices, Menlo Park, Calif.) at room temperature (22° C.). The calculation of the amount of hydrolysis of the thiopeptolide substrate is based on E412=13600 M^−1 cm^−1 for the DTNB-derived product 3-carboxy-4-nitrothiophenoxide. Assays are carried out with and without matrix metalloproteinase inhibitor compounds, and the amount of hydrolysis is compared for a determination of inhibitory activity of the test compounds.
(§3) Test compounds were evaluated at various concentrations in order to determine their respective IC50 values, the micromolar concentration of compound required to cause a 50% inhibition of catalytic activity of the respective enzyme.
It should be appreciated that the assay buffer used with MMP-3CD was 50 mM N-morpholinoethane sulfonate (“MES”) at pH 6.0 rather than the HEPES buffer at pH 7.0 described above.
(§4) Some representative compounds of Formula I have been evaluated for their ability to inhibit MMP-13, MMP-1FL, MMP-3CD, MMP-7FL, MMP-8FL, MMP-9FL, MMP-12CD, MMP-14CD, and/or MMP-17CD, wherein FL means full-length enzyme and CD means a catalytic domain of the full-length enzyme. Test compounds can be evaluated at various concentrations in order to determine their respective IC50 values, the micromolar concentration of compound required to cause a 50% inhibition of the hydrolytic activity of the respective enzyme.
(§5) Certain compounds of Formula I have also been assayed with MMP-1 full-length, MMP-3 catalytic domain, MMP-7 full-length, MMP-8 full-length, MMP-9 full-length, MMP-12 catalytic domain, MMP-14 catalytic domain, and MMP-17 catalytic domain. […] In Biological Table 2, the compound example numbers for the Compound Examples are indicated in the column labelled “Ex. No.”

MMP-12 catalytic domain = molecular target: T2, MMP-12 catalytic domain (Homo sapiens, UniProt P39900); test: Thiopeptolide substrate hydrolysis inhibition assay, MMP-12 catalytic domain; details: read-out: MMP-12CD IC50
T2 construct: MMP-9 full-length, MMP-12 catalytic domain, MMP-14 catalytic domain
Text: as §1, §2, §3, §4, §5

MMP-14 catalytic domain = molecular target: T3, MMP-14 catalytic domain (Homo sapiens, UniProt P50281); test: Thiopeptolide substrate hydrolysis inhibition assay, MMP-14 catalytic domain; details: read-out: MMP-14CD IC50
T3 construct: MMP-14 catalytic domain, and MMP-17 catalytic domain
Text: as §1, §2, §3, §4, §5

MMP-17 catalytic domain = molecular target: T4, MMP-17 catalytic domain (Homo sapiens, UniProt Q9ULZ9); test: Thiopeptolide substrate hydrolysis inhibition assay, MMP-17 catalytic domain; details: read-out: MMP-17 CD IC50
T4 construct: MMP-14 catalytic domain, and MMP-17 catalytic domain
T4 sequence (Q9ULZ9 126-295 limits assumed): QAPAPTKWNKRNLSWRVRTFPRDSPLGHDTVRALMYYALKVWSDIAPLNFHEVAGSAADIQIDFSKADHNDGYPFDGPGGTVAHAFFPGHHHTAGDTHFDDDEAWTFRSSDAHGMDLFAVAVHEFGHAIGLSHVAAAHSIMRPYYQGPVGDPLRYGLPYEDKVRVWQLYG
Text: as §1, §2, §3, §4, §5

MMP-13 catalytic domain = MMP-13 catalytic domain (Homo sapiens, UniProt P45452); test: Thiopeptolide substrate hydrolysis inhibition assay, MMP-13 catalytic domain
Text: The methods described below for the inhibition of MMP-13 may also be adapted and used to determine the ability of the compounds of Formula I to inhibit other matrix metalloproteases such as MMP-1, MMP-2, MMP-3, MMP-7, MMP-8, MMP-9, MMP-12, MMP-14, MMP-17, and the like.
Thiopeptolide substrates show virtually no decomposition or hydrolysis at or below neutral pH in the absence of a matrix metalloproteinase enzyme. A typical thiopeptolide substrate commonly utilized for assays is Ac-Pro-Leu-Gly-thioester-Leu-Leu-Gly-OEt. A 100 μL assay mixture will contain 50 mM of N-2-hydroxyethylpiperazine-N′-2-ethanesulfonic acid buffer (“HEPES,” pH 7.0), 10 mM CaCl2, 100 μM thiopeptolide substrate, and 1 mM 5,5′-dithio-bis-(2-nitro-benzoic acid) (DTNB). […] Assays are carried out with and without matrix metalloproteinase inhibitor compounds, and the amount of hydrolysis is compared for a determination of inhibitory activity of the test compounds.

MMP-1 full-length = molecular target: T5, MMP-1 full-length (Homo sapiens, UniProt P03956); test: Thiopeptolide substrate hydrolysis inhibition assay, MMP-1 full-length; details: full-length enzyme; read-out: MMP-1FL IC50
T5 construct: have also been assayed with MMP-1 full-length
T5 sequence (P03956 100-469): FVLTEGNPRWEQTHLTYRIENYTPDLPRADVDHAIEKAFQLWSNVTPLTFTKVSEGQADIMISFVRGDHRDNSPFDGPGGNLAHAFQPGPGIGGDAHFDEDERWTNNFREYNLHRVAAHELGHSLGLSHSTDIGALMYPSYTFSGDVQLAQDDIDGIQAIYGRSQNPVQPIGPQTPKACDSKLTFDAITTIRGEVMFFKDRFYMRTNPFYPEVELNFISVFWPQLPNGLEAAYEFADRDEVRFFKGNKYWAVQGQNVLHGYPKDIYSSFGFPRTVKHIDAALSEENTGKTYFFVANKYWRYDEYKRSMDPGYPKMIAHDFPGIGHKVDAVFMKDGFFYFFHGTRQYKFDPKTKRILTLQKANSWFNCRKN
Text: as §1, §2, §3, §4, §5

MMP-7 full-length = molecular target: T6, MMP-7 full-length (Homo sapiens, UniProt P09237); test: Thiopeptolide substrate hydrolysis inhibition assay, MMP-7 full-length; details: full-length enzyme; read-out: MMP-7FL IC50
T6 construct: MMP-3 catalytic domain, MMP-7 full-length, MMP-8 full-length
T6 sequence (P09237 95-267): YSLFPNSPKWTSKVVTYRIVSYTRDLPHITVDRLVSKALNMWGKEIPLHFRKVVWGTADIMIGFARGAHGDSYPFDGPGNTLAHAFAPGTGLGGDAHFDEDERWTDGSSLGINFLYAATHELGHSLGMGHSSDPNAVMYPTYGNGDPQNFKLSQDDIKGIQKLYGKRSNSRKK
Text: as §1, §2, §3, §4, §5

MMP-8 full-length = molecular target: T7, MMP-8 full-length (Homo sapiens, UniProt P22894); test: Thiopeptolide substrate hydrolysis inhibition assay, MMP-8 full-length; details: full-length enzyme; read-out: MMP-8FL IC50
T7 construct: MMP-7 full-length, MMP-8 full-length, MMP-9 full-length
Text: as §1, §2, §3, §4, §5

MMP-9 full-length = molecular target: T8, MMP-9 full-length (Homo sapiens, UniProt P14780); test: Thiopeptolide substrate hydrolysis inhibition assay, MMP-9 full-length; details: full-length enzyme; read-out: MMP-9FL IC50
T8 construct: MMP-8 full-length, MMP-9 full-length, MMP-12 catalytic domain
Text: as §1, §2, §3, §4, §5

[1] = MMP-13 catalytic domain, read-out: MMP-13CD IC50

T2 sequence (P39900 106-263 limits assumed): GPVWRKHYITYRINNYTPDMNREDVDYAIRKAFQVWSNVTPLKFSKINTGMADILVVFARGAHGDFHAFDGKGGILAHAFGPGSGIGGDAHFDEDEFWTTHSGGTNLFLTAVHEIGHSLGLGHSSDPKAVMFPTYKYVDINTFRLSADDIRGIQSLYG
T8 sequence (P14780 94-707): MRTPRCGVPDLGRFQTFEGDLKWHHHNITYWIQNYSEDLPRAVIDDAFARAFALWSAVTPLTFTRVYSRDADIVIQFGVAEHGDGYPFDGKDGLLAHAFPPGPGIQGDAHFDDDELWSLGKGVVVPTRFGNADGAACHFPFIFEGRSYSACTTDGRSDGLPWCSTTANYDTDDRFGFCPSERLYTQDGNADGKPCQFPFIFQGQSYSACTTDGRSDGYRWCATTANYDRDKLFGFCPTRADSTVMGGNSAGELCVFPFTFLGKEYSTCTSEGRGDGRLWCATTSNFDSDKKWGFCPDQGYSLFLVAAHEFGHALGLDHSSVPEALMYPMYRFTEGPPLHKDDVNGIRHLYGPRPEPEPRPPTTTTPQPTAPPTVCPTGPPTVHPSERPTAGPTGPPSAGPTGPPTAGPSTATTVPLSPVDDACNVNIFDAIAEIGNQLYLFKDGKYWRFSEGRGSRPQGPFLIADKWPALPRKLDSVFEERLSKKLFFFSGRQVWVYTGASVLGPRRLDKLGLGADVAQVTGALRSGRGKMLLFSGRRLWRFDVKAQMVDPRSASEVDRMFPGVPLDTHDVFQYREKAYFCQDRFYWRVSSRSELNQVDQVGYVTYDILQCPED
T1 sequence (P08254 100-272 limits assumed): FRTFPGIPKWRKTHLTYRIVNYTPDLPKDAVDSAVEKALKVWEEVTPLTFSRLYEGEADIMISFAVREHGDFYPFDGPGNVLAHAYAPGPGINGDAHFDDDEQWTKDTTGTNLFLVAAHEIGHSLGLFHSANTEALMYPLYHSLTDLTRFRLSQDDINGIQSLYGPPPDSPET
T7 sequence (P22894 101-467): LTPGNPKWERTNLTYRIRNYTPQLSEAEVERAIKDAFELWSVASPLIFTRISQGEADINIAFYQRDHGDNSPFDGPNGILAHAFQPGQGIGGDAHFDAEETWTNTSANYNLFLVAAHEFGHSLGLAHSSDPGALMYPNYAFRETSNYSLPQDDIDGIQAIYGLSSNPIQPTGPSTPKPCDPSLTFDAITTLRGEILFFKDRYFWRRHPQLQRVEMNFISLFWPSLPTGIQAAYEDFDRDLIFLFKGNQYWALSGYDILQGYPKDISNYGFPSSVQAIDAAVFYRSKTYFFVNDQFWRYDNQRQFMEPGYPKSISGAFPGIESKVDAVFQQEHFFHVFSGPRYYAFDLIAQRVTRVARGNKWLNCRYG

Structure (SMILES)	IC50 (MMP-3 catalytic domain) [µM]	IC50 (MMP-12 catalytic domain) [µM]	IC50 (MMP-14 catalytic domain) [µM]	IC50 (MMP-17 catalytic domain) [µM]	IC50 (MMP-1 full-length) [µM]	IC50 (MMP-7 full-length) [µM]	IC50 (MMP-8 full-length) [µM]	IC50 (MMP-9 full-length) [µM]	IC50 (MMP-13 catalytic domain; [1]) [µM]	IC50 (MMP-13 catalytic domain) [µM]
COc1cc(CNC(=O)c2cc3c(=O)n(Cc4ccc(C(=O)O)cc4)cnc3cn2)ccn1 [Compound Example 6, 4-{6-[(2-methoxy-pyridin-4-ylmethyl)-carbamoyl]-4-oxo-4H-pyrido [3,4-d]pyrimidin-3-ylmethyl}-benzoic acid]	17	> 100	> 100	> 100	–	–	–	–	–	–
O=C(O)c1ccc(Cn2cnc3cnc(C(=O)NCc4cccc(F)c4)cc3c2=O)cc1 [Compound Example 11, 4-[6-(3-fluoro-benzylcarbamoyl)-4-oxo-4H-pyrido[3,4-d]pyrimidin-3-ylmethyl]-benzoic acid]	> 100	–	> 100	> 100	> 100	> 100	> 100	> 100	–	0.017
O=C(O)c1ccc(Cn2cnc3cnc(C(=O)NCc4ccc(F)c(F)c4)cc3c2=O)cc1 [Compound Example 14, 4-[6-(3,4-difluoro-benzylcarbamoyl)-4-oxo-4H-pyrido[3,4-d]pyrimidin-3-ylmethyl]-benzoic acid]	42	–	> 100	> 100	> 100	> 100	> 100	> 100	0.0053	–
O=C(O)c1ccc(Cn2cnc3cnc(C(=O)NCc4ccccc4)cc3c2=O)cc1 [Compound Example 9]	> 30	> 30	> 100	> 100	–	–	–	–	–	0.02
O=C(O)c1ccc(Cn2cnc3cnc(C(=O)NCc4ccc(C(F)(F)F)cc4)cc3c2=O)cc1 [Compound Example 12, 4-[4-oxo-6-(4-trifluoromethyl-benzylcarbamoyl)-4H-pyrido[3,4-d]pyrimidin-3-ylmethyl]-benzoic acid]	> 100	–	> 100	> 100	> 100	> 100	> 100	> 100	–	0.097
O=C(O)c1ccc(Cn2cnc3cnc(C(=O)NCc4ccc(Cl)cc4)cc3c2=O)cc1 [Compound Example 4, 4-[6-(4-chloro-benzylcarbamoyl)-4-oxo-4H-pyrido [3,4-d]pyrimidin-3-ylmethyl]-benzoic acid]	> 100	–	> 100	> 100	> 100	> 100	–	> 100	–	0.01
COc1cc(CNC(=O)c2cc3c(=O)n(Cc4ccc(C(=O)O)cc4)cnc3cn2)ccc1O [Compound Example 15, 4-[6-(4-hydroxy-3-methoxy-benzylcarbamoyl)-4-oxo-4H-pyrido[3,4-d]pyrimidin-3-ylmethyl]-benzoic acid]	> 100	–	> 30	> 100	> 100	> 30	> 100	> 100	0.02	–
O=C(O)c1ccc(Cn2cnc3cnc(C(=O)NCc4cccc(C(F)(F)F)c4)cc3c2=O)cc1 [Compound Example 13, 4-[4-oxo-6-(3-trifluoromethyl-benzylcarbamoyl)-4H-pyrido[3,4-d]pyrimidin-3-ylmethyl]-benzoic acid]	48	–	> 100	> 100	> 100	> 100	–	> 100	–	0.0026

Continued, in another order:

IC50 (MMP-3 catalytic domain) [µM]	IC50 (MMP-12 catalytic domain) [µM]	IC50 (MMP-14 catalytic domain) [µM]	IC50 (MMP-17 catalytic domain) [µM]	IC50 (MMP-1 full-length) [µM]	IC50 (MMP-7 full-length) [µM]	IC50 (MMP-8 full-length) [µM]	IC50 (MMP-9 full-length) [µM]	IC50 (MMP-13 catalytic domain; [1]) [µM]	Structure (SMILES)	IC50 (MMP-13 catalytic domain) [µM]
14	–	> 100	> 100	> 100	> 100	> 100	> 100	0.0013	COc1cccc(CNC(=O)c2cc3c(=O)n(Cc4ccc(C(=O)O)cc4)cnc3cn2)c1 [Compound Example 2, 4-[6-(3-methoxy-benzylcarbamoyl)-4-oxo-4H-pyrido[3,4-d]pyrimidin-3-ylmethyl]-benzoic acid]	–
81	> 100	> 100	> 100	–	–	–	–	0.005	O=C(O)c1ccc(Cn2cnc3cnc(C(=O)NCc4ccncc4)cc3c2=O)cc1 [Compound Example 5, 4-{4-oxo-6-[(pyridin-4-ylmethyl)-carbamoyl]-4H-pyrido[3,4-d]pyrimidin-3-ylmethyl}-benzoic acid]	–
41	–	> 100	> 100	> 100	> 100	> 100	> 100	–	O=C(O)c1ccc(Cn2cnc3cnc(C(=O)NCc4cccc(Cl)c4)cc3c2=O)cc1 [Compound Example 10, 4-[6-(3-chloro-benzylcarbamoyl)-4-oxo-4H-pyrido[3,4-d]pyrimidin-3-ylmethyl]-benzoic acid]	–
> 100	–	> 100	> 100	> 100	> 100	> 100	> 100	0.032	O=C(O)c1ccc(Cn2cnc3cnc(C(=O)NCc4cccnc4)cc3c2=O)cc1 [Compound Example 3, 4-{4-oxo-6-[(pyridin-3-ylmethyl)-carbamoyl]-4H-pyrido[3,4-d]pyrimidin-3-ylmethyl}-benzoic acid]	–
